Test results taken from patent US20250320203A1, “4-(3H-PYRAZOLO[4,3-F]QUINOLIN-7-YL)-N-(2-(DIMETHYLAMINO)ETHYL)BENZAMIDE- OR HYDROXAMIC ACID COMPOUNDS, COMPOSITIONS, AND METHODS OF USE” (Purdue Research Foundation, priority 2022, published 2025).

Tests used:
Molm-14 cells (FLT3-ITD) = assay: AML cell line growth inhibition (CellTiter-Blue), 50 nM; format: cell-based; details: Homo sapiens, 50 nM inhibitor conc., means of triplicates, read-out: Percent Inhibition (%) Molm-14 growth
Method: With the amide kinase inhibitor library established, kinase inhibition and AML cell line (Molm-14, which harbors FLT3-ITD) growth inhibition were analyzed (Table 1). More specifically, Haspin and FLT3 inhibition were evaluated in-house via ADP Glo Kinase Assay (Promega, Madison, WI). […] Values reported are means of triplicates.
(§1) More specifically, cells were cultured to confluence in RPMI medium supplemented with 10% fetal bovine serum and 1× Penicillin-Streptomycin (Gibco™). Cells were plated at 5,000 cells/well in 96 well plates. After 24-hour incubation at 37° C. in a 5% CO2 incubator, compounds diluted in the same media were added to the indicated final concentration and allowed to incubate at 37° C. in a 5% CO2 incubator for 72 hours. Viability was determined using CellTiter-Blue® Cell Viability Assay (Promega, Madison, WI) with absorbance readings at 570 nm performed on a Cytation™ 5 Cell Imaging Multi-Mode Reader (BioTek) 3 hours after addition. Appropriate vehicle and cell-free controls were included. GI50 readings were confirmed by two scientists on two separate days.

FLT3-ITD = target: T1, FLT3-ITD (Homo sapiens, UniProt P36888); assay: FLT3-ITD enzyme inhibition, 10-dose IC50 (Reaction Biology); format: biochemical; details: 10 μM ATP
T1 sequence (P36888 1-993): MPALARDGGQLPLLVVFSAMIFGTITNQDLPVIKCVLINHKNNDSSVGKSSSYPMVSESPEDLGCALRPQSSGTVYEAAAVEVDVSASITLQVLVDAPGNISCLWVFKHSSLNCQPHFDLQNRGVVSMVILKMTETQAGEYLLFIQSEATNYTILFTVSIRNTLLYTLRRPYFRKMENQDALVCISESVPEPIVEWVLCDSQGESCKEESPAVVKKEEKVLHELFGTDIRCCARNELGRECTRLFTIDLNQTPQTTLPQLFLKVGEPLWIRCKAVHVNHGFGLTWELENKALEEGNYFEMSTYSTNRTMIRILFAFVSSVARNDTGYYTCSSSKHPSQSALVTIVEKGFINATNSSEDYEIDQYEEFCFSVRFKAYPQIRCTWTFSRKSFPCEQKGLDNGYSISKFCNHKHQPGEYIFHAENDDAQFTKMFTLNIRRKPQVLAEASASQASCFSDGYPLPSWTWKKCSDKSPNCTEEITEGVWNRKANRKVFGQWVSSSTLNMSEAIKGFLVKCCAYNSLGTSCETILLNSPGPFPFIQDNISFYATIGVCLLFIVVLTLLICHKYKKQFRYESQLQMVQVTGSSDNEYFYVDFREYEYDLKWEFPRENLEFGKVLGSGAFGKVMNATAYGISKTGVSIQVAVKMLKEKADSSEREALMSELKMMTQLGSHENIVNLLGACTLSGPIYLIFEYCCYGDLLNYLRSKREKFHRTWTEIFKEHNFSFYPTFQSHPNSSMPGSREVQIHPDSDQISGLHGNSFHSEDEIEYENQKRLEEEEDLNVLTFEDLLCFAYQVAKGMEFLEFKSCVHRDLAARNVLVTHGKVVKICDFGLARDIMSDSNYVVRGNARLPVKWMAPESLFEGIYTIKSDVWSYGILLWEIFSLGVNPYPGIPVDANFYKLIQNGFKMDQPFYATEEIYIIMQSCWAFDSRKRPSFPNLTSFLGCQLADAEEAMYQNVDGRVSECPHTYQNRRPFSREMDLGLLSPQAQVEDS

FLT3-D835Y = target: T2, FLT3-D835Y (Homo sapiens, UniProt P36888, D835Y); assay: FLT3 (D835Y) enzyme inhibition, 10-dose IC50 (Reaction Biology); format: biochemical; details: 10 μM ATP
T2 construct: purchased Reaction Biology (contract research service)
T2 sequence (P36888 27-993 D835Y): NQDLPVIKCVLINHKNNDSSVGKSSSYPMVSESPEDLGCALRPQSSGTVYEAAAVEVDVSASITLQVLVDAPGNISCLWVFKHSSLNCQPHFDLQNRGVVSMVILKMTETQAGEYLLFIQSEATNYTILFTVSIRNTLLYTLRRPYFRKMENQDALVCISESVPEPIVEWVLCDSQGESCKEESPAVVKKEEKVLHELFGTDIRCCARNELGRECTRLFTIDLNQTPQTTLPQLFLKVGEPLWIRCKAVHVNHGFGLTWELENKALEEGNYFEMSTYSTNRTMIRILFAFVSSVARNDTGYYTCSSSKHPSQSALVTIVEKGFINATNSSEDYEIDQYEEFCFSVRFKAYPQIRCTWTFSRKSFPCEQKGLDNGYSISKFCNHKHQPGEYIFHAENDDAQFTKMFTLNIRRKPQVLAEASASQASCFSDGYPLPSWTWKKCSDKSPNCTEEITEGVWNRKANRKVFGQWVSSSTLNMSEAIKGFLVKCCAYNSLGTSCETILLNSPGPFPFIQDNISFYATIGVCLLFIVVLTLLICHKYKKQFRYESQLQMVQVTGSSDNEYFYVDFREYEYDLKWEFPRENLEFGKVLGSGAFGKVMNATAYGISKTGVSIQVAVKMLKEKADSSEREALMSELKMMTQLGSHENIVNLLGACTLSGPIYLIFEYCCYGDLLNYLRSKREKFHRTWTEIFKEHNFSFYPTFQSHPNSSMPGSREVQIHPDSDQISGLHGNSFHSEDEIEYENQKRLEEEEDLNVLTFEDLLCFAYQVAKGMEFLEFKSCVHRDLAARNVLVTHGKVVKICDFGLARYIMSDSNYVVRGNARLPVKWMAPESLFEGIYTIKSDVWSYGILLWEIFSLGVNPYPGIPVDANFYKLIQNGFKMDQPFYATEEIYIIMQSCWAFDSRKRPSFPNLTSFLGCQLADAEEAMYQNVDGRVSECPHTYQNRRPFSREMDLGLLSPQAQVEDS

Molm-14-ITD-F691L = assay: Cell viability GI50, Molm-14-ITD-F691L; format: cell-based; details: Homo sapiens; 72 hours
Method: as §1
Scholl et al. (2020), supra. Accordingly, Compound HSK205 was evaluated against Molm-14 cell lines that harbor resistant mutations commonly found in the clinic, FLT3-ITD-D835Y and F691L (FIG. 15).

DNA = DNA intercalation assay; details: doses from 1 mM to 10 nM
Method: FIG. 16 is a graph of data from a DNA intercalation assay. […] Data was fitted to a non-linear regression equation using GraphPad Prism 9.0 software (each data point represents the mean of triplicates).
To move compounds forward for further development, DNA intercalation assays were conducted to eliminate compounds with high affinity for DNA.

IC50 (FLT3-ITD): < 0.5 nM | IC50 (FLT3-D835Y): < 0.5 nM | GI50 (Molm-14-ITD-F691L): 2.2 nM | DNA intercalation (DNA): did not intercalate into DNA
Structure (SMILES): Cc1c[nH]c(CNC(=O)c2ccc(-c3nc4ccc5[nH]ncc5c4c4c3CCCC4)cc2)n1 [Compound HSK205]
inhibition at 0.05 µM (Molm-14 cells (FLT3-ITD)): 96%
